Assay results taken from patent publication US20090105283A1, “3-HYDROQUINAZOLIN-4-ONE DERIVATIVES FOR USE AS STEAROYL CoA DESATURASE INHIBITORS” (priority 2007, published 2009).

Target: T1, stearoyl-CoA desaturase (SCD) (Rattus norvegicus, UniProt P07308)
T1 construct: The microsomes were quickly thawed and added to assay buffer so that a concentration of 0.4 mg/ml was achieved; from tissue
T1 sequence (P07308 1-358): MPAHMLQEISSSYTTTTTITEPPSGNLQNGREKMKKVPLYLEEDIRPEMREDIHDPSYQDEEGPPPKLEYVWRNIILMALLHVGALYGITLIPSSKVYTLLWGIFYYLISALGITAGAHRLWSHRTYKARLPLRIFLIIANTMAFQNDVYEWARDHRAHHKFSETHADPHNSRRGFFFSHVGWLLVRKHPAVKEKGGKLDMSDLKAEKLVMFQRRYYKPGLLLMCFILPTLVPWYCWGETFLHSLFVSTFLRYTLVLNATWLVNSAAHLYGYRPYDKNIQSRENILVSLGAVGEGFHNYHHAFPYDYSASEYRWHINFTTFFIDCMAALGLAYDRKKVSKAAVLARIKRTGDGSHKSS
Assay: SCD assay with rat liver microsomes ([3H]stearoyl CoA, adapted from Talamo and Bloch)
Assay type: biochemical
Conditions: [3H]stearoyl CoA substrate
Procedure, shortened: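 Liver microsomes came from diet-induced male Sprague Dawley rats and were used at 0.2 mg/ml final. Assay buffer was Tris pH 7.2 with NADH, ATP, CoA, MgCl2 and 0.1% BSA. Compounds were preincubated 30 min, then reacted 45 min at room temperature with [3H]stearoyl-CoA; after TCA stop and Bio-Bead cleanup, supernatant radioactivity was counted by scintillation.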

[1] = Table 2 (Example 21, procedures of Example 20), rat liver microsomes
[2] = Table 1, rat liver microsomes 0.2 mg/ml assay final, 30 min preincubation, 45 min reaction, room temperature

IC50 [1] [nM]	IC50 [2] [nM]	Structure (SMILES)
500	–	CCC(c1ccc(Cl)c(Cl)c1)n1cnc2ccc(NC(=O)COC(C)=O)cc2c1=O (stereo not shown) [compound 25, 2-(3-(1-(3,4-dichlorophenyl)propyl)-4-oxo-3,4-dihydroquinazolin-6-ylamino)-2-oxoethyl acetate]
–	6400	O=C(COc1cccc(F)c1)Nc1ccc2ncn(Cc3ccc(Cl)cc3)c(=O)c2c1 [XLIII, N-{3-[(4-chlorophenyl)methyl]-4-oxo(3-hydroquinazolin-6-yl)}-2-(3-fluorophenoxy)acetamide]
21000	–	O=C(CO)Nc1ccc2ncn(CCCNS(=O)(=O)c3cc(Cl)ccc3Cl)c(=O)c2c1 [compound 72, N-(3-(3-(2,5-dichlorophenylsulfonamido)propyl)-4-oxo-3,4-dihydroquinazolin-6-yl)-2-hydroxyacetamide]
360	–	O=C(Nc1cnc2ncn(Cc3ccc(Cl)c(Cl)c3)c(=O)c2c1)OCc1ccccc1 [compound 77, benzyl 3-(3,4-dichlorobenzyl)-4-oxo-3,4-dihydropyrido[2,3-d]pyrimidin-6-ylcarbamate]
1300	–	NCC(=O)Nc1ccc2ncn(Cc3ccc(Cl)c(Cl)c3)c(=O)c2c1 [compound 94, 2-amino-N-(3-(3,4-dichlorobenzyl)-4-oxo-3,4-dihydroquinazolin-6-yl)acetamide]
58	–	C[C@H](c1ccc(Cl)c(Cl)c1)n1cnc2cc(NC(=O)CO)ccc2c1=O [compound 36, (R)—N-(3-(1-(3,4-dichlorophenyl)ethyl)-4-oxo-3,4-dihydroquinazolin-7-yl)-2-hydroxyacetamide]
3100	–	COCCNC(=O)c1ccc2c(=O)n(Cc3ccc(Cl)cc3)cnc2c1 [compound 93, 3-(4-chlorobenzyl)-N-(2-methoxyethyl)-4-oxo-3,4-dihydroquinazoline-7-carboxamide]
–	2170	O=C(CCC(=O)c1ccccc1)Nc1ccc2ncn(Cc3ccc(Cl)c(Cl)c3)c(=O)c2c1 [XLII, N-{3-[(3,4-dichlorophenyl)methyl]-4-oxo(3-hydroquinazolin-6-yl)}-4-oxo-4-phenylbutanamide]
340	–	O=C(CO)Nc1ccc2ncn(CCOc3ccccc3Cl)c(=O)c2c1 [compound 58, N-(3-(2-(2-chlorophenoxy)ethyl)-4-oxo-3,4-dihydroquinazolin-6-yl)-2-hydroxyacetamide]
3900	–	O=C(Nc1ccc2ncn(Cc3ccc(Cl)c(Cl)c3)c(=O)c2c1)C(O)CO (stereo not shown) [compound 106, N-(3-(3,4-dichlorobenzyl)-4-oxo-3,4-dihydroquinazolin-6-yl)-2,3-dihydroxypropanamide]
–	1500	C=CCOC(=O)Nc1ccc2ncn(Cc3ccc(Cl)c(Cl)c3)c(=O)c2c1 [X, N-{3-[(3,4-dichlorophenyl)methyl]-4-oxo(3-hydroquinazolin-6-yl)}prop-2-enyloxycarboxamide]
–	1450	O=C(COc1cccnc1)Nc1ccc2c(=O)n(Cc3ccc(Cl)c(Cl)c3)cnc2c1 [LI, N-{3-[(3,4-dichlorophenyl)methyl]-4-oxo(3-hydroquinazolin-7-yl)}-2-(3-pyridyloxy)acetamide]
–	8000	O=C(COc1ccccc1)Nc1ccc2ncn(Cc3ccc4ccsc4c3)c(=O)c2c1 [XLI, N-[3-(benzo[b]thiophen-6-ylmethyl)-4-oxo(3-hydroquinazolin-6-yl)]-2-phenoxyacetamide]
–	350	O=C(CO)Nc1ccc2c(=O)n(Cc3ccc(Cl)c(Cl)c3)cnc2c1 [LXXXII, N-{3-[(3,4-dichlorophenyl)methyl]-4-oxo(3-hydroquinazolin-7-yl)}-2-hydroxyacetamide]
1500	–	COCCNC(=O)c1ccc2ncn(Cc3ccc(Cl)c(Cl)c3)c(=O)c2c1 [compound 82, 3-(3,4-dichlorobenzyl)-N-(2-methoxyethyl)-4-oxo-3,4-dihydroquinazoline-6-carboxamide]
5800	–	O=C(CO)Nc1ccc2ncn(CCc3cccc(Cl)c3)c(=O)c2c1 [compound 38, N-(3-(3-chlorophenethyl)-4-oxo-3,4-dihydroquinazolin-6-yl)-2-hydroxyacetamide]
